Reference: patent US20230130103A1, “TARGETED PHARMACOLOGICAL THERAPEUTICS IN UVEAL MELANOMA” (Washington University, priority 2017, published 2023)
Starred links: 1 amine or outer side, 2 acyl side, 3 side chain; linkers in the order of their positions; H or OH if unused. Positions of bridges follow the written chain, without caps; N, C: chain ends. Non-standard residues stand in square brackets, D forms with d. Residues, ends and D or L forms follow the SMILES beside them. *: point of attachment. Leu(3R-OH,Nα-propionyl) = CCC(=O)N[C@H](C(=O)*)[C@H](O)C(C)C; X1 = CC(C)[C@@H](O[*:3])[C@H](N[*:1])C(=O)[*:2]; X2 = CC(C)[C@H](O[*:3])[C@@H](N[*:1])C(=O)[*:2]; NMeaThr = CN[C@H](C(=O)O)[C@H](C)O; dPhLac = O=C(O)[C@H](O)Cc1ccccc1; NMeA = CN[C@@H](C)C(=O)O; NMeDha = C=C(NC)C(=O)O

Test system: 92.1 UM cells
Experiment: Gene Set Enrichment Analysis (GSEA) of RNA-Seq data
Assay type: cell-based, Human
[1] = gene set #CAFFAREL_RESPONSE_TO_THC_DN
[2] = gene set ALCALAY_AML_BY_NPM1_LOCALIZATION_DN
[3] = gene set BASSO_[?]_LYMPHOCYTE_NETWORK
[4] = gene set CHIANG_LIVER_CANCER_SUBCLASS_UNANNOTATED_DN
[5] = gene set CHICAS_RB1_TARGETS_GROWING
[6] = gene set CHICAS_RB1_TARGETS_SENESCENT
[7] = gene set DOUGLAS_[?]_TARGETS_UP
[8] = gene set ELVIDGE_HIF1A_TARGETS_UP
[9] = gene set FERRANDO_T_ALL_WITH_MLL_ENL_FUSION_DN
[10] = gene set FOURNIER_ACINAR_DEVELOPMENT_LATE_DN
[11] = gene set GARCIA_TARGETS_OF_FL[?]_AND_DAX1_DN
[12] = gene set GROSS_HYPOXIA_VIA_ELK3_UP
[13] = gene set GRUETZMANN_PANCREATIC_CANCER_UP
[14] = gene set IVANOVA_HEMATOPOIESIS_LATE_PROGENITOR
[15] = gene set JOHNSTONE_PARVES_TARGETS_2_DN
[16] = gene set KEGG_AMINO_SUGAR_AND_NUCLEOTIDE_SUGAR_METABOLISM
[17] = gene set KEGG_CITRATE_CYCLE_TCA_CYCLE
[18] = gene set KEGG_FC_GAMMA_[?]_MEIATED_PHAGOCYTOSIS
[19] = gene set KEGG_PATHOGENIC_ESCHERICHIA_COLI_INFECTION
[20] = gene set LASTOWSKA_NEUROBLASTOMA_COPY_NUMBER_DN
[21] = gene set MARIADASON_REGULATED_BY_HISTONE_ACETYLATION_DN
[22] = gene set MARTINEZ_RESPONSE_TO_TRABECTEDIN_DN
[23] = gene set MEINHOLD_OVARIAN_CANCER_LOW_GRADE_DN
[24] = gene set ONDER_CDH1_TARGETS_1_DN
[25] = gene set OXFORD_RALA_OR_RALB_TARGETS_UP
[26] = gene set PEART_HDAC_PROLIFERATION_CLUSTER_DN
[27] = gene set PODAR_RESPONSE_TO_ADAPHOSTIN_DN
[28] = gene set PRAMOONIAGO_SOX4_TARGETS_DN
[29] = gene set PUIFFE_INVASION_INHIBITED_BY_ASCITES_UP
[30] = gene set REACTOME_ACTIVATION_OF_CHAPERONE_GENES_BY_XBP15

## C=C1C(=O)N[C@@H](C)C(=O)N(C)[C@@H](C)C(=O)N[C@H]([C@@H](OC(=O)[C@@H](NC(=O)CC)[C@H](O)C(C)C)C(C)C)C(=O)N(C)[C@@H]([C@H](C)OC)C(=O)O[C@H](C(C)C)[C@H](NC(C)=O)C(=O)O[C@H](Cc2ccccc2)C(=O)N1C [FR, [(1S)-1-[(3S,6R,9S,12S,18R,21S,22R)-21-acetamido-18-benzyl-3-[(1S)-1-methoxyethyl]-4,9,10,12,16-pentamethyl-15-methylidene-2,5,8,11,14,17,20-heptaoxo-22-propan-2-yl-1,19-dioxa-4,7,10,13,16-pentazacyclodocos-6-yl]-2-methylpropyl] (2S,3R)-3-hydroxy-4-methyl-2-(propanoylamino)pentanoate] (Ac-[X1][dPhLac][NMeDha]A[NMeA][X2](Leu(3R-OH,Nα-propionyl))[NMeaThr](Me); ester 1-C)
[1]
  ES: 0.6253
  NES: 2.134
[2]
  ES: 0.4726
  NES: 2.261
[3]
  ES: 0.4691
  NES: 2.175
Gene set BENPORATH_ES_1
  ES: 0.3997
  NES: 2.093
Gene set BIOCARTA_RHO_PATHWAY
  ES: 0.6245
  NES: 2.154
[4]
  ES: 0.4436
  NES: 2.13
[5]
  ES: 0.4131
  NES: 2.057
[6]
  ES: 0.4124
  NES: 2.254
Gene set CSR_EARLY_UP.V1_UP
  ES: 0.4601
  NES: 2.136
[7]
  ES: 0.3969
  NES: 2.179
[8]
  ES: 0.5452
  NES: 2.195
[9]
  ES: 0.5186
  NES: 2.174
[10]
  ES: 0.6475
  NES: 2.082
Gene set GABP_B
  ES: 0.419
  NES: 2.063
[11]
  ES: 0.4628
  NES: 2.153
[12]
  ES: 0.4432
  NES: 2.179
[13]
  ES: 0.393
  NES: 2.047
[14]
  ES: 0.4037
  NES: 2.155
Gene set JIANG_VHL_TARGETS
  ES: 0.4893
  NES: 2.171
[15]
  ES: 0.4128
  NES: 2.133
[16]
  ES: 0.5976
  NES: 2.088
[17]
  ES: 0.6499
  NES: 2.188
[18]
  ES: 0.5262
  NES: 2.154
[19]
  ES: 0.5693
  NES: 2.167
[20]
  ES: 0.3819
  NES: 2.135
Gene set LINSLEY_MIR16_TARGETS
  ES: 0.4327
  NES: 2.092
Gene set LIN_APC_TARGETS
  ES: 0.5227
  NES: 2.086
Gene set LY_AGING_PREMATURE_DN
  ES: 0.6267
  NES: 2.103
[21]
  ES: 0.5871
  NES: 2.132
[22]
  ES: 0.4324
  NES: 2.184
[23]
  ES: 0.7218
  NES: 2.197
Gene set NPS14_DN.V1_DN
  ES: 0.4491
  NES: 2.133
[24]
  ES: 0.4845
  NES: 2.225
[25]
  ES: 0.544
  NES: 2.089
Gene set PBC2_EED_UP.V1_DN
  ES: 0.4268
  NES: 2.076
[26]
  ES: 0.4996
  NES: 2.059
Gene set PIC_DCD42_REG_PATHWAY
  ES: 0.5968
  NES: 2.051
Gene set PIC_E2F_PATHWAY
  ES: 0.5204
  NES: 2.172
Gene set PIC_FANCONE_PATHWAY
  ES: 0.5661
  NES: 2.097
Gene set PIC_FCER1_PATHWAY
  ES: 0.5656
  NES: 2.102
Gene set PID_PDGFRB_PATHWAY
  ES: 0.4862
  NES: 2.232
Gene set PIO_AURORA_A_PATHWAY
  ES: 0.6657
  NES: 2.186
Gene set PIO_TCR_PATHWAY
  ES: 0.6
  NES: 2.184
[27]
  ES: 0.6921
  NES: 2.117
[28]
  ES: 0.5652
  NES: 2.158
[29]
  ES: 0.5104
  NES: 2.126
Gene set RACTOME_IMMUNE_SYSTEM
  ES: 0.3664
  NES: 2.063
Gene set RB_P107_0N, L1_UP
  ES: 0.4941
  NES: 2.216
[30]
  ES: 0.5859
  NES: 2.116
